In patent US20130230571A1, “MACROCYCLIC LACTONE COMPOUNDS AND METHODS FOR THEIR USE” (Elixir Medical Corporation, priority 2010, published 2013):
“Also recorded” adds a separate entry of the source.

What was measured:
human smooth muscle cell = test: in vitro human smooth muscle cell culture testing, incorporated thymidine; format: cell-based; settings: exposure for 8 hours; human smooth muscle cells; read-out: IC50 (incorporated thymidine, anti-proliferative)
Description: The amounts of incorporated thymidine for samples of myolimus of varying concentrations (0.0001, 0.001, 0.01, 0.1, and 1 μM) and of rapamycin of varying concentrations (0.0001, 0.001, 0.01, 0.1, and 1 μM) were measured after exposure for 8 hours (as shown in FIG. 1). The IC50 of both myolimus and rapamycin was 0.1 nM indicating potent anti-proliferative properties.

MMP-9 = MMP-9 production by LPS-activated macrophages, ELISA; format: cell-based; settings: 10 nM
Description: (§1) In cell culture studies, macrophages were activated to secrete cytokines such as MMP-9 and MCP-1 by treating the cells to E Coli lippopolysaccharide (LPS). Inhibition of these cytokines upon treatment of the activated macrophages with myolimus and rapamycin with 10 nM concentration was tested using ELISA assay.

MCP-1 = MCP-1 production by LPS-activated macrophages, ELISA; format: cell-based; settings: 10 nM
Description: as §1

[1] = cited from earlier work

Structure (SMILES) | IC50 (human smooth muscle cell) [nM] | production of the cytokine MMP-9 (MMP-9) | production of the cytokine MMP-9 (MMP-9; listed as Rapamycin) | production of cytokine MCP-1 (MCP-1) | solubility in water [1] | production of the cytokine MMP-9 (MMP-9; listed as Myolimus) | production of cytokine MCP-1 (MCP-1; listed as Myolimus)
CO[C@H]1C[C@@H]2CC[C@@H](C)[C@@](O)(O2)C(=O)C(=O)N2CCCC[C@H]2C(=O)O[C@H]([C@H](C)C[C@@H]2CC[C@@H](O)[C@H](OC)C2)CC(=O)[C@H](C)/C=C(\C)[C@@H](O)[C@@H](OC)C(=O)[C@H](C)C[C@H](C)/C=C/C=C/C=C/1C [rapamycin, Rapamycin] | 0.1 | increased the production of MMP-9 | increased the production | did not impact the production of MCP-1; also recorded: did not have any impact | very slightly soluble in water | – | –
CO[C@H]1C[C@@H]2CC[C@@H](C)[C@@](O)(O2)C(=O)C(=O)N2CCCC[C@H]2C(=O)O[C@H]([C@H](C)C[C@@H]2CC[C@@H](O)[C@H](OC)C2)CC[C@H](C)/C=C(\C)[C@@H](O)[C@@H](OC)C(=O)[C@H](C)C[C@H](C)/C=C/C=C/C=C/1C [myolimus, 32-deoxo-rapamycin] | 0.1 | inhibiting production of MMP-9 | – | inhibiting the production | – | reduced the production | reduced the production
